Series [1] deals with MDCK cells. Kind of series: Cell scattering behavior assay. Further details: key: − indicates that the compound failed to significantly promote cell scattering behavior; + indicates maximum potency at or above 100 nM; ++ indicates maximum potency at or above 10 nM; +++ indicates maximum potency at or above 1 nM; ++++ indicates maximum potency at or above 0.1 nM. To be noted: 5 ng/mL HGF, 24 hours, normalized particle count vs HGF alone. Type of series: cell-based. The protocol:
MDCK cells were grown under normal conditions and observed to spontaneously form tight colonies as they proliferate. MDCK cells respond to HGF treatment by moving away from each other (scattering), which is quantified to assess the amount of HGF/MET activation in the cell population. In this experiment, MDCK cells were plated in a 96-well format, treated with HGF and exemplary compounds, fluorescently stained, imaged in large fields, and scattering behavior was quantified. Quantification was determined by analyzing the number of continuous groups of cells compared to the total stained area imaged (normalized particle counts).
MDCK cells were plated at low density in black-walled imaging plates and allowed to attach overnight at 37° C. and 5% CO2 in DMEM+10% FBS. Cells were then starved to 2 hours in DMEM without FBS (“starve media”). Samples containing exemplary compounds were prepared in DMEM without FBS and included 5 ng/mL HGF protein (“treatment media”). A control curve was also prepared for each plate using HGF concentrations of 0, 5, 10, and 20 ng/mL. Starve media was replaced with treatment media and cells were incubated for 24 hours at 37° C. and 5% CO2.
After incubation, cells were fixed by replacing treatment media with cold ethanol and incubating for 20 minutes at 4° C. Cells were then rehydrated by washing with PBS and then with stain solution (fluorescent wheat germ agglutinin; WGA488 at 20 μg/mL in PBS). Cells were incubated with stain solution 30 minutes at room temperature after which stain solution was replaced with fresh PBS.
Fields of cells were imaged using an iCyte high content imager in the green wavelength. Images were converted to binary and analyzed for particle size and particle count. For the purpose of analysis, an individual cell touching no other cells or separated colonies of cells were identified as particles, and particle counts were normalized by the total signal area to account for differences in cell number. […] Compound potency was assessed by statistical increase in normalized particle count compared to HGF treatment alone.

The nature of series [2]: Turbidimetric solubility assay. Type of series: physicochemical. To be noted: aqueous buffer, kinetic from dmso stock, PBS, 37° C., absorbance 620 nm. The method, then: Aqueous solubility is a critical drug property that helps to predict bioavailability. Generally, compounds with aqueous solubility <100 μg/ml are poor drugs.
To assess a compound's solubility by turbidity, test compounds were first dissolved in organic solvent (DMSO) at a concentration of 10 mM. This compound solution was then diluted in aqueous solvent (PBS) in a dilution series from […] in a 96-well assay plate. Solutions were incubated at 37° C. for 2 hours.
In wells with test compounds over their solubility limit, the compound will precipitate, effectively blocking the passage of light and thus increasing the absorbance signal of UV light at a wavelength of 620 nm. Compounds were considered insoluble at a tested concentration if turbidity raises the absorbance more than 10% above control reads.

Series [3] has as its target T1, HGF/MET system (Homo sapiens, UniProt P08581+P14210).
T1 construct: HEK293 cells were prepared by passage into 6-well multi-plates; endogenous in cells; host or cells: HEK293
Kind of series: Phospho-MET ELISA. The class given is cell-based. Set-up: key: − indicates that the compound failed to significantly augment MET phosphorylation; + indicates maximum potency at or above 100 nM; ++ indicates maximum potency at or above 10 nM; +++ indicates maximum potency at or above 1 nM; ++++ indicates maximum potency at or above 0.1 nM. As to conditions: HEK293 cells, 1 ng/mL recombinant HGF, 15 minutes, pMET ELISA. The method, then:
Compounds were screened for potency towards the HGF/MET system using phospho-MET (pMET) ELISA kits (Cell Signaling). pMET levels were detected in samples having low (1 ng/mL) and high (10 ng/mL) concentrations of HGF.
HEK293 cells were prepared by passage into 6-well multi-plates and grown at 37° C. at 5% CO2 in DMEM+10% FBS until approximately 90% confluent. Cells were then starved for at least 8 hours in serum-free growth media.
Exemplary compounds were prepared in DMEM+0.1% FBS, diluted and added to treatment media with 1 ng/mL recombinant HGF protein (R&D Systems). Cells were incubated in triplicate at 37° C. and 5% CO2 for 15 minutes. Samples were then treated with 180 μL ice-cold RIPA (radioimmunoprecipitation assay) buffer and cells were lysed on ice for 15 minutes. Lysates were cleared by centrifugation at 16,000-g for 15 minutes and the supernatant was retained. Samples were normalized using a BCA assay of lysates to determine protein concentrations across the samples.
Between 50 and 100 μg total protein lysate was loaded into ELISA wells in pMET Sandwich ELISA kit (Cell Signaling Catalog #7227C), ensuring equal protein load in each well. The ELISA was processed according to manufacturer's instructions. After color developed, absorbance was read on an optical plate reader at 450 nm.
Potency measurements were determined using peak efficacy by scaling test compound dose treatments along a scale of 1-10 between 1 ng/mL and 10 ng/mL HGF doses according to the following formula: […]
where y is the normalized data-point, x is the raw data point, A is the mean HGF at 1 ng/mL, and B is the mean HGF at 10 ng/mL.
For orientation: ELISA stands for enzyme-linked immunosorbent assay.

Consider 24 compounds from patent US20240025903A1, “Bicyclic Compounds and Uses Thereof for the Treatment of Diseases” (Athira Pharma, Inc., priority 2020, published 2024).

T1 sequence (P08581 308-1390 limits assumed): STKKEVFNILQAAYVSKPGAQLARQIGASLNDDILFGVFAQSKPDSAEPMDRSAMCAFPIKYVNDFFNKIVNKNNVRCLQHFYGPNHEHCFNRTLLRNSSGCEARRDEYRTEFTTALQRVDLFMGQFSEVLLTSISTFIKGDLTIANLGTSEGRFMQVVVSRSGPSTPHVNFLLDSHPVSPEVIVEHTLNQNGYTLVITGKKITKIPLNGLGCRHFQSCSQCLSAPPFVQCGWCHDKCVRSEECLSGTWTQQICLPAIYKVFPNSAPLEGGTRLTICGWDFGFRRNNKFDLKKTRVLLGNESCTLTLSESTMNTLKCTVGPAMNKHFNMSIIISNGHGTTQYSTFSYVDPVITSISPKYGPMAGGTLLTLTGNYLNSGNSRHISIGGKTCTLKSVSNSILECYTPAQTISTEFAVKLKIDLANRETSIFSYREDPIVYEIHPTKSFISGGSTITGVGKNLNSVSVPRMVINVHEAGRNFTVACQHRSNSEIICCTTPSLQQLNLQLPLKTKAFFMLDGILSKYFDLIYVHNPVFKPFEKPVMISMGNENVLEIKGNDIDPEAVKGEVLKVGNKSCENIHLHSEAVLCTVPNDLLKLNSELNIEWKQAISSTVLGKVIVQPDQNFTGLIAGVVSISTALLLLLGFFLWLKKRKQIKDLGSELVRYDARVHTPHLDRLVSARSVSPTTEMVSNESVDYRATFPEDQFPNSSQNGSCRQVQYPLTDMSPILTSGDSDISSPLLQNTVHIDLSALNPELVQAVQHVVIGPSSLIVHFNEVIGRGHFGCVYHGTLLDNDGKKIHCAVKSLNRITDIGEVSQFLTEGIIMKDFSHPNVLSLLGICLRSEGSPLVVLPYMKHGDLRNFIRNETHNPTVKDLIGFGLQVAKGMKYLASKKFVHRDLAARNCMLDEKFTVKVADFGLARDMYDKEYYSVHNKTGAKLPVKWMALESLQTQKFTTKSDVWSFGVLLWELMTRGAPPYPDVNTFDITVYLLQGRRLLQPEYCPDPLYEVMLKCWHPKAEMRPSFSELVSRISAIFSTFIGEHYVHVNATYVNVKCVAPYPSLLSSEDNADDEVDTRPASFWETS
T1 sequence (P14210 32-494 limits assumed): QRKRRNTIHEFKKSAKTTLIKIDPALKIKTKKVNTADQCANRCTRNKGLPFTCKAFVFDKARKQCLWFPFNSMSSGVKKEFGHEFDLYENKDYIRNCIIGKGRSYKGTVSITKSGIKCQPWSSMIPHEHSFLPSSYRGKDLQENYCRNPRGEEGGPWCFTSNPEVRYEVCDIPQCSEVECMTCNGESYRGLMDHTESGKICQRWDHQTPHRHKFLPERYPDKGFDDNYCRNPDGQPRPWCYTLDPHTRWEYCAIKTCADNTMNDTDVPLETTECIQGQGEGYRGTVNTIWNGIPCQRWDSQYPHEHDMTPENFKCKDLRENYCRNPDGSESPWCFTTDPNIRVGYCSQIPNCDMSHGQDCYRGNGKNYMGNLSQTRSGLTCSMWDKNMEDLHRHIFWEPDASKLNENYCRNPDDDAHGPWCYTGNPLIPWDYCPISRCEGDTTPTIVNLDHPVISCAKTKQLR

In general, solubility refers to the dissolved amount per volume that the medium holds. As for `CCC(C)CN1CC2N(C(=O)c3ccc(Cl)cc3)CCC(=O)N2C(C)C1=O` (centres unmarked) [Compound 10, 1-(4-chlorobenzoyl)-6-methyl-8-(2-methylbutyl)hexahydro-4H-pyrazino[1,2-a]pyrimidine-4,7(6H)-dione], in series [1], the “Potency (cell scattering)” value was “−”. Moreover, the solubility at 2 h in series [2] is above 300 µM. In addition, the “Potency (augmentation of MET phosphorylation)” value in series [3] is on record as “−”.

In the case of `CC1C(=O)N(CC2CCCC2)CC2N(C(=O)c3ccc(OC(F)F)cc3)CCC(=O)N12` (centres unmarked) [Compound 13], the “Potency (cell scattering)” value in series [1] was “−”. The solubility at 2 h in series [2] is above 300 µM. In addition, in series [3], the “Potency (augmentation of MET phosphorylation)” value is on record as “−”.

With `CC1C(=O)N(CC2CCCC2)CC2N(C(=O)c3ccc(C(F)(F)F)cc3)CCC(=O)N12` (centres unmarked) [Compound 15], the “Potency (cell scattering)” value in series [1] is “−”. In series [2], this compound displayed a solubility at 2 h above 300 µM. In series [3], the “Potency (augmentation of MET phosphorylation)” value is “−”.

For the compound `CC1C(=O)N(CC2CCC2)CC2N(C(=O)c3ccc(C(F)(F)F)cc3)CCC(=O)N12` (centres unmarked) [Compound 16], the “Potency (cell scattering)” value in series [1] is “−”. For the same compound, the solubility at 2 h in series [2] was above 300 µM. Further, the “Potency (augmentation of MET phosphorylation)” value in series [3] is listed as “−”.

Take `C=CCCN1CC2N(C(=O)c3ccc(OC(F)F)cc3)CCC(=O)N2C(C)C1=O` (centres unmarked) [Compound 18]: the “Potency (cell scattering)” value in series [1] is given as “−”. In series [2], this compound displayed a solubility at 2 h above 300 µM. Besides, in series [3], the “Potency (augmentation of MET phosphorylation)” value is listed as “−”.

With `CCCCN1CC2N(C(=O)c3ccc(C(F)(F)F)cc3)CCC(=O)N2C(C)C1=O` (centres unmarked) [Compound 21], the “Potency (cell scattering)” value in series [1] was “−”. Further, in series [2], the solubility at 2 h is above 300 µM. In addition, the “Potency (augmentation of MET phosphorylation)” value in series [3] was “−”.

Regarding `CC(C)CN1CC2N(C(=O)c3ccc(C(F)(F)F)cc3)CCC(=O)N2C(C)C1=O` (centres unmarked) [Compound 23], the “Potency (cell scattering)” value in series [1] is “−”. This compound also gave a solubility at 2 h in series [2] above 300 µM. Also, the “Potency (augmentation of MET phosphorylation)” value in series [3] is “−”.

Take `CC(C)N1CC2N(C(=O)c3ccc(C(F)(F)F)cc3)CCC(=O)N2C(C)C1=O` (centres unmarked) [Compound 24]: the “Potency (cell scattering)” value in series [1] is on record as “−”. The solubility at 2 h in series [2] is above 300 µM. The “Potency (augmentation of MET phosphorylation)” value in series [3] is recorded as “−”.

Take `CC1C(=O)N(CCc2ccco2)CC2N(C(=O)c3ccc(OC(F)F)cc3)CCC(=O)N12` (centres unmarked) [Compound 25]: the “Potency (cell scattering)” value in series [1] is given as “−”. The solubility at 2 h in series [2] is above 300 µM. The “Potency (augmentation of MET phosphorylation)” value in series [3] was “−”.

Take `CC1C(=O)N(CCc2cccs2)CC2N(C(=O)c3ccc(OC(F)F)cc3)CCC(=O)N12` (centres unmarked) [Compound 26]: in series [1], the “Potency (cell scattering)” value is recorded as “−”. This compound came in with a solubility at 2 h in series [2] above 300 µM. For the same compound, the “Potency (augmentation of MET phosphorylation)” value in series [3] is listed as “−”.

On to `CC1C(=O)N(CC2CCCO2)CC2N(C(=O)c3ccc(OC(F)F)cc3)CCC(=O)N12` (centres unmarked) [Compound 27], for which the solubility at 2 h in series [2] is above 100 µM. Moreover, the “Potency (augmentation of MET phosphorylation)” value in series [3] is on record as “−”.

Consider `CC1C(=O)N(CCc2ccccc2)CC2N(C(=O)c3ccc(OC(F)F)cc3)CCC(=O)N12` (centres unmarked) [Compound 28], for which the “Potency (cell scattering)” value in series [1] is on record as “−”. In series [2], this compound registered a solubility at 2 h above 100 µM. Also, the “Potency (augmentation of MET phosphorylation)” value in series [3] is given as “−”.

`CC1C(=O)N(CCc2ccncc2)CC2N(C(=O)c3ccc(OC(F)F)cc3)CCC(=O)N12` (centres unmarked) [Compound 29] returned a solubility at 2 h in series [2] above 300 µM. Also, in series [3], the “Potency (augmentation of MET phosphorylation)” value is “−”.

Consider `CC1C(=O)N(CCC2CC2)CC2N(C(=O)c3ccc(OC(F)F)cc3)CCC(=O)N12` (centres unmarked) [Compound 31], for which the “Potency (cell scattering)” value in series [1] is given as “−”. The solubility at 2 h in series [2] is above 300 µM. Further, the “Potency (augmentation of MET phosphorylation)” value in series [3] is listed as “−”.

Turning to `COCCN1CC2N(C(=O)c3ccc(OC(F)F)cc3)CCC(=O)N2C(C)C1=O` (centres unmarked) [Compound 32], the “Potency (cell scattering)” value in series [1] is reported as “−”. The compound also displayed a solubility at 2 h in series [2] above 300 µM. The “Potency (augmentation of MET phosphorylation)” value in series [3] is on record as “−”.

For `COCCCN1CC2N(C(=O)c3ccc(OC(F)F)cc3)CCC(=O)N2C(C)C1=O` (centres unmarked) [Compound 33], the “Potency (cell scattering)” value in series [1] is given as “−”. In series [2], this compound showed a solubility at 2 h above 300 µM. Besides, the “Potency (augmentation of MET phosphorylation)” value in series [3] is “−”.

In the case of `CC1C(=O)N(CCO)CC2N(C(=O)c3ccc(OC(F)F)cc3)CCC(=O)N12` (centres unmarked) [Compound 34, 1-(4-(difluoromethoxy)benzoyl)-8-(2-hydroxyethyl)-6-methylhexahydro-4H-pyrazino[1,2-a]pyrimidine-4,7(6H)-dione], the “Potency (cell scattering)” value in series [1] is “−”. In series [2], this compound showed a solubility at 2 h above 300 µM. In addition, in series [3], the “Potency (augmentation of MET phosphorylation)” value is on record as “−”.

On to `CC1C(=O)N(CCN)CC2N(C(=O)c3ccc(OC(F)F)cc3)CCC(=O)N12` (centres unmarked) [Compound 35, 8-(2-aminoethyl)-1-(4-(difluoromethoxy)benzoyl)-6-methylhexahydro-4H-pyrazino[1,2-a]pyrimidine-4,7(6H)-dione], for which the “Potency (cell scattering)” value in series [1] is “−”. For the same compound, in series [2], the solubility at 2 h is above 300 µM. The “Potency (augmentation of MET phosphorylation)” value in series [3] is “−”.

`CC1C(=O)N(CCS(C)(=O)=O)CC2N(C(=O)c3ccc(OC(F)F)cc3)CCC(=O)N12` (centres unmarked) [Compound 36]: in series [1], the “Potency (cell scattering)” value is “−”. Besides, the solubility at 2 h in series [2] was above 300 µM. Also, the “Potency (augmentation of MET phosphorylation)” value in series [3] was “−”.

On to `CC1C(=O)N(CCC2CCCC2)CC2N(Cc3ccc(OC(F)F)cc3)CCC(=O)N12` (centres unmarked) [Compound 38], for which the solubility at 2 h in series [2] is above 100 µM. Besides, the “Potency (augmentation of MET phosphorylation)” value in series [3] is on record as “−”.

In series [2], `CC1C(=O)N(CCC2CCC2)CC2N(Cc3ccc(OC(F)F)cc3)CCC(=O)N12` (centres unmarked) [Compound 40] gave a solubility at 2 h above 300 µM. In series [3], the “Potency (augmentation of MET phosphorylation)” value is on record as “−”.

For `CC1C(=O)N(CCC2CCC2)CC2N(Cc3ccc(F)cc3)CCC(=O)N12` (centres unmarked) [Compound 45, 8-(2-cyclobutylethyl)-1-(4-fluorobenzyl)-6-methylhexahydro-4H-pyrazino[1,2-a]pyrimidine-4,7(6H)-dione], the solubility at 2 h in series [2] is above 300 µM. In series [3], the “Potency (augmentation of MET phosphorylation)” value was “−”.

`CCC(C)CN1CC2N(Cc3ccc(OC(F)F)cc3)CCC(=O)N2C(CF)C1=O` (centres unmarked) [Compound 47, 1-(4-(difluoromethoxy)benzyl)-6-(fluoromethyl)-8-(2-methylbutyl)hexahydro-4H-pyrazino[1,2-a]pyrimidine-4,7(6H)-dione]: the solubility at 2 h in series [2] was above 300 µM. Moreover, the “Potency (augmentation of MET phosphorylation)” value in series [3] is given as “−”.

Regarding `CCC(C)CN1CC2N(Cc3ccc(C(F)(F)F)cc3)CCC(=O)N2C(CF)C1=O` (centres unmarked) [Compound 48, 6-(fluoromethyl)-8-(2-methylbutyl)-1-(4-(trifluoromethyl)benzyl)hexahydro-4H-pyrazino[1,2-a]pyrimidine-4,7(6H)-dione], the solubility at 2 h in series [2] was above 100 µM. Further, the “Potency (augmentation of MET phosphorylation)” value in series [3] is reported as “−”.
